87 compounds from a melting point compilation (Tetko et al.; mined from patent text by program, amines drawn as free bases though some values may be those of a salt) can be followed below.

Each structure is given as a SMILES string. A value given as a limit tells only on which side of the number the result lay.

For the compound `NC(=O)c1c(NC(=O)C2CC2)sc2c1CCCC2=O`, the melting point (as a rule, the temperature of the solid-liquid transition) was in the range of 203 to 205 °C. Then `CC(C)(C)c1cc(CCc2ccccc2NC(=O)NC2CCN(Cc3cccnc3)CC2)cc(C(C)(C)C)c1O`, with 156 to 158 °C; and `CCOC(=O)c1ccc(-c2nc3ccccc3s2)cc1`, with 132 to 134 °C; and `O=c1cc(-c2cc3ccccc3cc2O)oc2ccccc12`, with 202 °C. In the case of `NS(=O)(=O)c1ccc(-c2cnn(CC(F)(F)F)c(=O)c2-c2ccc(Cl)c(F)c2)cc1`, the melting point was in the range of 180 to 183 °C.

For the compound `COC(=O)c1ccc(OC[C@H](C)N(C)C(=O)C(F)(F)F)cc1`, the melting point was in the range of 73 to 75 °C. For `Cc1ccc(NC(=O)c2ccc3ncccc3c2)cc1NC(=O)c1cccc(OCCN2CCOCC2)c1`, the melting point is 216 to 217 °C. In turn, `Nc1nc2ccccc2c2c1ncn2CCO` returned a melting point of 260 to 262 °C. For the compound `NS(=O)(=O)c1ccc(-c2noc(-c3cnn4c(C(F)F)cc(-c5ccc(Cl)cc5)nc34)n2)s1`, the melting point was found to be 259 °C. The compound `N#Cc1ccccc1C(Cc1ccc(C(F)(F)F)cc1)Cn1cncn1` (configuration not stated) gave a melting point of 123 °C. The compound `CCc1ccc(Cn2cc(-c3cn(C4CC(O)C(CO)O4)c(=O)[nH]c3=O)nn2)cc1` (configuration not stated) returned a melting point of 201 °C. `CCOC(=O)C1=C(C)NC(CCn2ccnc2)=C(C(=O)OCC)C1c1ccccc1[N+](=O)[O-]` (configuration not stated) yielded a melting point of 140 to 141 °C. Consider `COC(=O)[C@@H](NC(=O)Oc1ccccc1)C(C)C`, for which the melting point amounted to 59.1 °C.

As to `Cc1cc(-n2c(C)nnc2C)cc2ccc(=O)[nH]c12`, the melting point fell in the range of 308 to 310 °C. In turn, `O=C1COC(Nc2ccc(C(O)(C(F)(F)F)C(F)(F)F)cc2)=N1` gave a melting point of 272 to 274 °C. On to `N#Cc1ccc(N2C(=O)NC3(CCSCC3)C2=O)cc1C(F)(F)F`, for which the melting point is 209 to 210 °C. `COc1ccc(CSc2ccc(S(N)(=O)=O)s2)cc1` had a melting point of 139 to 141 °C. Take `O=[N+]([O-])c1cnc(-c2ccccc2)nc1Cl`: the melting point is 160 to 161 °C. As for `OC(COc1ccc(F)cc1)CN1CCC(O)(c2ccc(Cl)cc2)CC1` (configuration not stated), the melting point is 103 to 105 °C. Then `CC(=O)Oc1cc(C(C)C)ccc1C1(OC(C)=O)C(=O)c2cccc([N+](=O)[O-])c2C1=O` (configuration not stated), with 94 to 98 °C. The compound `O=c1[nH]nc2n1-c1ccc(Cl)cc1C(c1ccccc1Cl)=CC2` displayed a melting point of 250 to 251 °C. The compound `Cc1cc(Oc2c(Cl)cc(C(F)(F)F)cc2Cl)nn1C(=O)NCc1ccccc1` had a melting point of 50 to 53 °C. In turn, `CCOC(=O)C(NC(C)=O)(C(=O)OCC)C1=Nc2ccc(C#N)cc2C(c2ccccc2F)=NC1` registered a melting point of 138 to 140 °C. `CCN1CCNC(=O)c2ccc(Nc3ncc(Cl)c(Nc4ccccc4-c4nccn4C)n3)cc21`: the melting point lay in the range of 143 to 151 °C. Then `Cc1cc2c(-c3ccccc3)c3n(c(=O)c2cc1C)CCCC3O` (configuration not stated), with 210 to 212 °C; and `NC(=O)c1sc2nc(N3CCC(NCC(O)c4cc5ccccc5cn4)CC3)cc(C(F)(F)F)c2c1N` (configuration not stated), with 169 to 172 °C. Compound `Cn1ccc(=O)c(OCc2ccccc2)c1C(=O)c1cccnc1` had a melting point of 210 to 216 °C. The compound `CCOC(=O)C(Cc1cc(OC)c(OC)cc1OC)C(=O)OCC` gave a melting point of 50 to 51 °C. `S=C(Nc1ccccc1)N(Cc1ccc(Br)cc1)C1CCCC1` gave a melting point of 129 to 131 °C. Then `COC(=N)Nc1nc(Cl)cc(Cl)n1`, with 178 °C; and `CCn1ncc2c(Cl)c3c(nc21)CCc1ccccc1C3=O`, with 111 to 113 °C; and `Cc1nn(C)cc1C(=O)NC(C#N)c1ccco1` (configuration not stated), with 122 °C. In turn, `O=c1c2c[nH]cc(-c3ccccc3)c-2nn1-c1ccccc1` displayed a melting point of 280 to 285 °C. `CN1CCc2c([nH]c3ccc(NS(=O)(=O)c4ccc(N)cc4)cc23)C1` gave a melting point of 236 to 237 °C.

Compound `COCC(=O)N1CCc2nc3ccccc3c(C)c2CC1` returned a melting point of 116 °C. `CC(COc1cccc2ccccc12)Nc1ccc(C(=O)O)cc1` (configuration not stated) displayed a melting point of 194 to 197 °C.

For the compound `CC1(C)Oc2cc3nonc3cc2C(NC(=O)NCCCCl)C1O` (configuration not stated), the melting point was in the range of 83 to 85 °C. As for `COC(=O)c1ccc(=O)n(CCNC(=O)c2cnc3ccccc3c2)c1`, the melting point lay in the range of 174 to 175 °C. Then `COc1cc(COc2ccc(N)nn2)c(Br)c(OC)c1OC`, with 160 to 161 °C; and `Nn1c(C(F)(F)F)cc(=O)n(-c2ccc(O)cc2)c1=O`, with 150 to 155 °C; and `CCCCOc1c2c(nc3c1cnn3CC)CCc1ccccc1C2=O`, with 113 to 115 °C. For `Fc1ccc(NC(=S)NN2CC=CCC2)cc1`, the melting point was in the range of 163 to 164 °C. In turn, `Cc1ccsc1-c1ccc(C(C)(N)C(=O)O)cc1` (configuration not stated) gave a melting point of more than 250 °C. With `FC(F)(F)/C(=C(\c1ccccc1)c1ccc(OCCN2CCCC2)cc1)c1ccccc1`, the melting point fell in the range of 84.5 to 86 °C.

Compound `Cc1nc(-c2ccccn2)c2nc(-c3ccccc3)cc-2[nH]1` displayed a melting point of 182 to 183 °C. As for `O=C(O)[C@@H]1CCCN1C(=O)c1cc2cc3c(cc2c2cc(OCc4ccccc4)ccc12)OCO3`, the melting point lay in the range of 221 to 223 °C. Then `C#CC(C)N1C(=O)c2ccccc2C1=O` (configuration not stated), with 104 to 106 °C; and `CCCCNC(=O)/C(=C/C=C/c1cc2ccccc2[nH]1)OC`, with 185 to 186 °C. Then `CC1NC(=O)NN=C1c1ccccn1` (configuration not stated), with 212 to 214 °C. Then `CCN(CC)CCNC(=O)c1cc(N(C)S(C)(=O)=O)ccc1OC`, with 48 to 50 °C. The compound `O=C(O)Cc1ncc2c(n1)-c1ccc(Cl)cc1C(c1ccccc1F)=NC2` gave a melting point of 138 to 140 °C. Compound `Cc1cc2ccccn2c1C(=O)c1ccc(O)c(Br)c1` came in with a melting point of 216 to 217 °C. On to `CC(C)(C)c1cc(-c2cccs2)cc2c1OCC2(C)C`, for which the melting point was in the range of 61 to 63 °C.

`COC1NC(=O)N(C2CCCCC2)C1=O` (configuration not stated): the melting point was 135 to 137 °C. `CC(C)(C)OC(=O)N[C@@H]1C(=O)N2C(C(=O)OC(c3ccccc3)c3ccccc3)=C(/C=C3\CCN(CC4CC4)C3=O)CS[C@H]12` yielded a melting point of 175 to 180 °C. Then `CCOC(=O)COC(CC)c1ccc(-c2ccc(Cl)cc2)cc1` (configuration not stated), with 170 to 172 °C. Take `Cc1noc(CC(=O)N(N)C(=O)c2ccco2)n1`: the melting point was 169 to 171 °C. Then `Cc1ccc(S(=O)(=O)Nc2ccccc2C#N)cc1`, with 134 to 136 °C; and `N#Cc1cccc(C(=O)NC2CCCNC(=O)C2)c1` (configuration not stated), with 221 to 222 °C. `NCc1nnc2n1-c1ccc(Cl)cc1C(c1ccccc1)=NC2` registered a melting point of 168 to 172 °C. Consider `N#Cc1c(N2CCc3ccccc3CC2)nc(COC2CCCCO2)[nH]c1=O` (configuration not stated), for which the melting point was 180 to 183 °C. Then `CC(C)(C)OC(=O)NC(Cc1cc2ccccc2s1)C(=O)O` (configuration not stated), with 128 to 129 °C; and `Cc1cc(C(=O)N2Cc3ccc(C(=O)N(C)C[C@H](O)[C@H]4OC(=O)O[C@@H]4[C@H](O)CO)n3Cc3ccccc32)ccc1C1=CCCCC1`, with 166 to 175 °C. In turn, `CC(C)n1c(=O)nc(-c2ccc(N(C)C)cc2)c2cc3c(cc21)OCO3` came in with a melting point of 240 to 245 °C. For `Cc1noc(NS(=O)(=O)c2ccc(-c3ccccc3)cc2)c1Cl`, the melting point was 129 to 132 °C.

With `COC1(c2cccc(Sc3ccc(C(C)=NO)cc3)c2)CCN(CC(F)(F)F)C1` (configuration not stated), the melting point lay in the range of 86 to 88 °C. In turn, `O=C(Nc1ccc(CCCCC2(C(=O)NCC(F)(F)F)c3ccccc3-c3ccccc32)nc1)c1ccccc1` returned a melting point of 109 to 113 °C.

As to `CC(=O)c1ccc(-c2ccc(CC(=O)NC3CCN(Cc4ccc(Cl)c(Cl)c4)CC3)cc2)cc1`, the melting point worked out at 184 °C. For `O=C1N(Cc2ccccn2)c2cccc(Br)c2C12COc1cc3c(cc12)CCO3` (configuration not stated), the melting point was more than 200 °C. The compound `O=c1c2cccc3c2n(c(=O)n1CCO)-c1cc(C(F)(F)F)ccc1S3=O` (configuration not stated) had a melting point of 205 to 206 °C. Then `CCOC(=O)C=Cc1c(OCc2ccc(OCc3nc(-c4ccccc4)oc3C)cc2)ccc2ccccc12`, with 73 to 74 °C; and `COc1ccc2c(c1)c(-c1[nH]c3ncccc3c1C)cn2C`, with 237 °C; and `O=C1c2ccc(Cl)cc2C(=O)N1c1ccc([N+](=O)[O-])cc1Cl`, with 209 to 212 °C. Compound `Cc1cc2c(c3ccc(=O)[nH]c13)OC(CNC=O)C2` (single isomer, unassigned; (+)) registered a melting point of 282 to 284 °C. Take `O=Cc1ccc2c(c1)Cc1cc(Br)ccc1-2`: the melting point was in the range of 161 to 170 °C.

With `CN1CCC(C2(O)c3ccccc3C=Cc3ccc(C#N)cc32)CC1` (configuration not stated), the melting point is 219 to 221 °C. The compound `CC(C)c1cc(C(=O)Nc2ccc(CC(=O)O)cc2)oc1C(C)C` returned a melting point of 154 to 156 °C. `CC(C)(C)c1cc(OCCCCc2nnn[nH]2)cc(C(C)(C)C)c1` showed a melting point of 140 to 141 °C. `CN=C(C1=C(O)C(=O)c2ccccc2C1=O)c1ccccc1` returned a melting point of 235 to 237 °C. Then `O=C1c2ccccc2C(=O)N1[C@@H]1C=CC[C@H]1O` (relative stereo), with 114 to 116 °C; and `COC(=O)c1ccc(OCCNC(=O)OCc2ccccc2)c(Cl)c1`, with 81 °C.

Regarding `Cc1cccc(-c2c(CC(=O)Nc3ccc(F)cc3C(F)(F)F)c(=O)oc3cc4c(cc23)CCC4O)c1` (configuration not stated), the melting point lay within 225 to 227 °C.

For the compound `CC(C)(C)c1cc(SCc2ccc(C(=O)O)cc2)cc(C(C)(C)C)c1O`, the melting point came out at 171 °C. `OC(CNCCCn1cnc2ccccc21)c1ccc(OCc2ccccc2)cc1` (configuration not stated): the melting point lay in the range of 83 to 85 °C. Then `O=c1[nH]c(=O)n([C@@H]2O[C@H](CO)[C@@H](O)[C@H]2O)cc1/C(I)=C\I`, with 107 to 109 °C; and `CC(C)C(NC(=O)Cn1cccc(NC(=O)Nc2ccccc2)c1=O)C(=O)C(F)(F)F` (configuration not stated), with 94 to 106 °C. Take `CCOC(C)OC(CCOc1ccc([N+](=O)[O-])cc1)C(F)(F)F` (configuration not stated): the melting point was determined as 81 °C.
